Results: patent US20260091043A1, “COMPOSITIONS AND METHODS FOR TREATING MYCOBACTERIUM INFECTIONS” (DATA2DISCOVERY, INC., priority 2022, published 2026)
Read-outs that look alike come from different tables or passages of the source.

Experiments:
[1] = tested on: M. abscessus (ATCC Smooth strain); assay: M. abscessus (ATCC Smooth strain) resazurin growth inhibition assay; assay type: cell-based, Mycobacterium abscessus; conditions: for IC50 / IC90: Mycobacteroides abscessus; for activity against M. abscessus (in words): summary of table results
[2] = tested on: M. tuberculosis (H37RV strain); assay: M. tuberculosis (H37RV strain) resazurin growth inhibition assay; assay type: cell-based, Mycobacterium tuberculosis; conditions: for IC50 / IC90: Mycobacterium tuberculosis; for activity against M. tuberculosis (in words): summary of table results
[3] = M. abscessus ATCC Smooth, 96 well plate, 37° C. 4 days, resazurin, read after 1 day, read-out: IC50
[4] = M. abscessus ATCC Smooth, 96 well plate, 37° C. 4 days, resazurin, read after 1 day, read-out: IC90
[5] = M. tuberculosis H37RV, 96 well plate, 37° C. 4 days, resazurin, read 3 days later, read-out: IC50
[6] = M. tuberculosis H37RV, 96 well plate, 37° C. 4 days, resazurin, read 3 days later, read-out: IC90

| SMILES | IC50 [1, 3] [µM] | IC90 [1, 4] [µM] | IC50 [2, 5] [µM] | IC90 [2, 6] [µM] | activity against M. abscessus (in words) [1] | activity against M. tuberculosis compared to kanamycin (in words) ([2]; comparison with control kanamycin) | activity against M. tuberculosis (in words) [2] | IC50 [1] [µM] | IC90 [1] [µM] | IC50 ([2]; H37RV) [µM] | IC90 ([2]; H37RV) [µM] |
| --- | --- | --- | --- | --- | --- | --- | --- | --- | --- | --- | --- |
| NCC[C@H](O)C(=O)N[C@@H]1C[C@H](N)[C@@H](O[C@H]2O[C@H](CN)[C@@H](O)[C@H](O)[C@H]2O)[C@H](O)[C@H]1O[C@H]1O[C@H](CO)[C@@H](O)[C@H](N)[C@H]1O [Amikacin] | 4.78 | 7.15 |  |  |  |  |  |  |  |  |  |
| NC[C@H]1O[C@H](O[C@H]2[C@H](O)[C@@H](O[C@H]3O[C@H](CO)[C@@H](O)[C@H](N)[C@H]3O)[C@H](N)C[C@@H]2N)[C@H](O)[C@@H](O)[C@@H]1O [Kanamycin] | 12.1 | 16.1 | 1.06 | 4.22 |  |  |  |  |  |  |  |
| O=C(Nc1ccc([N+](=O)[O-])cc1Cl)c1cc(Cl)ccc1O [Niclosamide, niclosamide] | 32.2 | 59.1 | 1.92 | 2.95 | significant activity | superior overall to kanamycin | significant activity |  |  |  |  |
| O=C(Nc1ccc(Br)cc1)c1cc(Br)cc(Br)c1O [Tribromsalan, 3,5,4′-tribromosalicylanilide] |  |  |  |  | significant activity |  | significant activity | 99.8 | 147 | 67.2 | 76.9 |
